Test results from patent publication EP4737473A1, “NOVEL COMPLEMENT INHIBITOR AND PREPARATION, USE AND PRODUCT THEREOF” (Liu, Xiaorong, priority 2023, dated 2025).
Positions of bridges follow the written chain, without caps; N, C: chain ends. Non-standard residues stand in square brackets, D forms with d. Residues, ends and D or L forms follow the SMILES beside them. ξ: configuration not given here. Bpa = N[C@@H](Cc1ccc(C(=O)c2ccccc2)cc1)C(=O)O; Trp(7-aza) = N[C@@H](Cc1c[nH]c2ncccc12)C(=O)O; Trp(1-Me) = Cn1cc(C[C@H](N)C(=O)O)c2ccccc21; ξTrp(5-F) = NC(Cc1c[nH]c2ccc(F)cc12)C(=O)O; 2Nal = N[C@@H](Cc1ccc2ccccc2c1)C(=O)O; Api = NC1(C(=O)O)CCNCC1; Abu = CC[C@H](N)C(=O)O; Aib = CC(C)(N)C(=O)O

Columns and labels:
[1] = target: C3 in human plasma (human) (UniProt P01024); assay: cell-based or functional assay
Chain of C3 in human plasma (human) (P01024 23-1663): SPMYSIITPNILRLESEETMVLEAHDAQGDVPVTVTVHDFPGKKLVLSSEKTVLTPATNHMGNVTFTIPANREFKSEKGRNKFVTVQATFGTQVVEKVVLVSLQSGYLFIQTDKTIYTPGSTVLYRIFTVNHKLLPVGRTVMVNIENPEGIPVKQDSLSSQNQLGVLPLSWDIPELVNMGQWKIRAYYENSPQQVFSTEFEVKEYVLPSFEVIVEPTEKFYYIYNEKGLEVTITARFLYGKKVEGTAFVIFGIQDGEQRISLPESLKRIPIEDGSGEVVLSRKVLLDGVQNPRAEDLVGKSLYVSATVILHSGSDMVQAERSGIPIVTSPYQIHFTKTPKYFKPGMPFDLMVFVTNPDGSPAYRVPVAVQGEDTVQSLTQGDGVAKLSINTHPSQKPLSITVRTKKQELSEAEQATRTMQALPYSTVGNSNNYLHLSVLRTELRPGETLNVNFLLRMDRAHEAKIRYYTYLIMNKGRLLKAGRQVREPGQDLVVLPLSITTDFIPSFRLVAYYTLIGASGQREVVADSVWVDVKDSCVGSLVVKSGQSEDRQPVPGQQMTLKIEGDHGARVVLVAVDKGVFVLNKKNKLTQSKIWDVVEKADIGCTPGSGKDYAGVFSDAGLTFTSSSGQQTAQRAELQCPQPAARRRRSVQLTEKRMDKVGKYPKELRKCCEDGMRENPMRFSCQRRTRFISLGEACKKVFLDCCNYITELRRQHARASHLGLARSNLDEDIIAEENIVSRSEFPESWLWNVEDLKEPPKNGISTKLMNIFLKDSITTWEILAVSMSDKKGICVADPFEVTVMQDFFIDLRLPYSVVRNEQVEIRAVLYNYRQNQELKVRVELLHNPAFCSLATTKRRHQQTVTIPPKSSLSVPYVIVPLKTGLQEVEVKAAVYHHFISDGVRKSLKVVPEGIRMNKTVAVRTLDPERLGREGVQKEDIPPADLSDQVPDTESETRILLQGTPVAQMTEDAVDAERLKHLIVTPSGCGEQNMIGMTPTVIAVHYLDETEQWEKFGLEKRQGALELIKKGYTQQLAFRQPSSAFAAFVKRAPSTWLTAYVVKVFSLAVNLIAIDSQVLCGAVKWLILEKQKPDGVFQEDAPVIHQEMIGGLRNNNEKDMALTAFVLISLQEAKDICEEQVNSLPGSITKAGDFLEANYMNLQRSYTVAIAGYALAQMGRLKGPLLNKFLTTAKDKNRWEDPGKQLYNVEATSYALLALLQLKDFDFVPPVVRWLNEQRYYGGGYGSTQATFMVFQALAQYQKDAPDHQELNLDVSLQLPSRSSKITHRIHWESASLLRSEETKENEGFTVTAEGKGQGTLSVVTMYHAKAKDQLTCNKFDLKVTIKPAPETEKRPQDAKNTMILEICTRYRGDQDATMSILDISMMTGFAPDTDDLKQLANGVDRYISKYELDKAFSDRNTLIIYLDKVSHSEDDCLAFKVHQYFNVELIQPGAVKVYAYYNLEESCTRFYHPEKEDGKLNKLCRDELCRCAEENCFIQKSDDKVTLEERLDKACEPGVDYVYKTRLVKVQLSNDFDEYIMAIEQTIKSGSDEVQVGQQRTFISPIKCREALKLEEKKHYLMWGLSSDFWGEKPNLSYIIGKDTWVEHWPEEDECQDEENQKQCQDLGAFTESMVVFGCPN

[2] = target: T1, His-tag recombinant human C3 protein (Homo sapiens, UniProt P01024); assay: BLI affinity assay (Bio-Layer Interferometry, Ni-NTA biosensor, ForteBio Octet); type: binding; design: purchased Sino Biological Inc; conditions: for Kd: 60s association, 90s dissociation, PBS pH 8.0; for kon: association rate constant; for koff: dissociation rate constant, read-out: kdis
Excerpt: The BLI affinity assay was used to verify the effects of the cyclic peptides of the disclosure and the control product.
BLI refers to Bio-Layer Interferometry. The principle is: after visible light is emitted from the spectrometer, two reflected spectra are formed at the two interfaces of the optical film layer at the end of the sensor, and an interference spectrum is formed. Any change in film thickness caused by molecular binding can be reflected by the displacement value of the interference spectrum.
Subsequently, a 90s dissociation step was performed after the 60s association phase to obtain the Kd value by fitting the curve.
The stock solution was dissolved in 15% acetonitrile, and the working solution was serially diluted with PBS at pH 8.0.

C3 protein = C3 protein (Homo sapiens, UniProt P01024); assay: MST affinity assay (microscale thermophoresis, Monolith NT.115); type: binding; conditions: polypeptide about 200 nM, 0.5×PBS, 15% ACN, maximum protein concentration 0.25 µM
[3] = system: classical pathway complement; assay: Classical pathway complement inhibition assay (ELISA, human plasma); type: biochemical; conditions: human plasma 1:40 in VBS, 15 minutes at room temperature
Experimental: The half-inhibitory concentration values of SEQ ID NO.1-6 were evaluated by the classical pathway complement inhibition assay. The association constant (Ka), dissociation constant (Kd), and equilibrium dissociation constant (KD) were determined by surface plasmon resonance (SPR) assay.
The complement inhibition assay can be performed with reference to the following steps: Evaluation was performed by an established enzyme-linked immunosorbent assay (ELISA). Under normal ambient temperature, 96-well plates were coated with 50 µL of 1% ovalbumin in PBS for 2 hours. […] After washing, complement activation (C3b/iC3b/C3d bound to immune complexes) was detected using HRP-conjugated goat α-human C3 antibody (1:1000; MP Biomedicals). The reaction was performed using HRP substrate (0.05% ABTS and 0.1% H2O2 dissolved in 0.1 M sodium citrate, pH 4.2), and the absorbance was read at 405 nm using a VICTOR multi-label plate reader (PerkinElmer, Waltham, MA). 100% complement activation was obtained in the absence of the C3 peptide inhibitor, and the absorbance data obtained at 405 nm were converted to the percentage of complement inhibition. […] Surface plasmon resonance (SPR) experiments were performed using a Biacore 3000 instrument (GE Healthcare, Piscataway Town, NJ), and the binding affinity and kinetic characteristics of the cyclic peptides were evaluated by SPR.

[4] = target: T1, His-tag recombinant human C3 protein; assay: BLI (ForteBio Octet), His-tag C3 on Ni-NTA biosensor, peptide in solution
Target sequence in this assay (P01024 23-1663 limits assumed): as the sequence (P01024 23-1663) above

[5] = target: C3 protein (MST affinity assay) (Homo sapiens (Human)) (UniProt P01024); assay: MST (Monolith NT.115), retest; fluorescently labeled peptide, C3 protein titrated
Chain of C3 protein (MST affinity assay) (Homo sapiens (Human)) (P01024 23-667 limits assumed, form in doubt, chain 1 of 2): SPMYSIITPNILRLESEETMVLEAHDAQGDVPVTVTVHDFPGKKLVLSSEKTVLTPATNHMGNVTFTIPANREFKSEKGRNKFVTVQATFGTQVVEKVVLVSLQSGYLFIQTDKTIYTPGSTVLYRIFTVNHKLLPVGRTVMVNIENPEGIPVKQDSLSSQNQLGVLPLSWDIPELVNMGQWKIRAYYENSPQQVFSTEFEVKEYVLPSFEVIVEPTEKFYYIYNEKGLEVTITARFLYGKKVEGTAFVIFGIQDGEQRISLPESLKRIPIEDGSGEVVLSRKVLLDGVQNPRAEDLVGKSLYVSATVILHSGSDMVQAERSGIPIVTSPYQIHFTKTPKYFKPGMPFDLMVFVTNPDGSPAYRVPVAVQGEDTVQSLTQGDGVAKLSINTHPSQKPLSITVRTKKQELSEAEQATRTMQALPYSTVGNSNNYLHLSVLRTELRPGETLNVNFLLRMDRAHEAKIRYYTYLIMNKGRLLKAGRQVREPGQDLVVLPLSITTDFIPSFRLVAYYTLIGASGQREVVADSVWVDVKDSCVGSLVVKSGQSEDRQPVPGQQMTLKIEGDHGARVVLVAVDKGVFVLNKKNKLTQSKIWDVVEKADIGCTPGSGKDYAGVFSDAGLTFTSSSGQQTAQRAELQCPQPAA
Chain of C3 protein (MST affinity assay) (Homo sapiens (Human)) (P01024 672-1663 limits assumed, form in doubt, chain 2 of 2): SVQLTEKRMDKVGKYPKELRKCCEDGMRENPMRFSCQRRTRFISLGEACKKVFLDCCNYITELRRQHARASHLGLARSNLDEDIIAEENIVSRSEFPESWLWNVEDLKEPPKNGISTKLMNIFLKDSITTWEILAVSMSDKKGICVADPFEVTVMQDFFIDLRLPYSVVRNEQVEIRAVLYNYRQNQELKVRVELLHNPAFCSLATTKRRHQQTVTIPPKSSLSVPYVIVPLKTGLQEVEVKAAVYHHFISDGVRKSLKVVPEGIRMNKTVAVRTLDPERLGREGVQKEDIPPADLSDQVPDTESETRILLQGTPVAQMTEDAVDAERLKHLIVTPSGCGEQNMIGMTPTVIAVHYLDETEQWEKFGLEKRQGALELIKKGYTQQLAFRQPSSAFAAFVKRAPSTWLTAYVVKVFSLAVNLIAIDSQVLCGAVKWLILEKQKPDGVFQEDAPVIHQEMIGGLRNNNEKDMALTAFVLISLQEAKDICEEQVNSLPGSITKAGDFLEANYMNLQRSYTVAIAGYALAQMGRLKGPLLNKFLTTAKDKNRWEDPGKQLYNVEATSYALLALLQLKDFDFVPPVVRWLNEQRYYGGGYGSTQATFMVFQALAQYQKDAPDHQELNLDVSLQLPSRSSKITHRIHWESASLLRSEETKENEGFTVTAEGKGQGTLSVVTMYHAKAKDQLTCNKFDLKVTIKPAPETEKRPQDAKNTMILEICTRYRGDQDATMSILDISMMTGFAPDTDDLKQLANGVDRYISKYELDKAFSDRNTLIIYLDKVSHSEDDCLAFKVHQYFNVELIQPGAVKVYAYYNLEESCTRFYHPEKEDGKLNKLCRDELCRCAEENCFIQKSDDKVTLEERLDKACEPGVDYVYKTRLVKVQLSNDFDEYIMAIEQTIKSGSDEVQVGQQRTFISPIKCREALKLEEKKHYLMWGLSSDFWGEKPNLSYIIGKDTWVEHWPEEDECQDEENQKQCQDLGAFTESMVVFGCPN

[6] = target: C3 protein (MST affinity assay) (Homo sapiens (Human)) (UniProt P01024); assay: MST (Monolith NT.115), fluorescently labeled peptide ~200 nM, C3 protein titrated from 0.25 uM

IC50 (µm), classical pathway complement inhibition assay (ELISA, C3b/iC3b/C3d deposition from human plasma) [1] [nM]	Kd [2] [nM]	kon [2] [M⁻¹ s⁻¹]	koff [2] [s⁻¹]	Compound	also measured
–	45.4	387000	0.0176	CC[C@H](C)[C@H](NC(C)=O)C(=O)N[C@H]1CSSC[C@@H](C(=O)N[C@H](C(N)=O)[C@@H](C)O)NC(=O)[C@H](CCCNC(=N)N)NC(=O)[C@H](Cc2c[nH]cn2)NC(=O)C(C)(C)NC(=O)CNC(=O)C(Cc2c[nH]c3ccc(F)cc23)NC(=O)[C@H](CC(=O)O)NC(=O)[C@H](CCC(N)=O)NC(=O)[C@H](Cc2ccc3ccccc3c2)NC(=O)[C@H](C(C)C)NC1=O (some centres unmarked) [SEQ ID NO.3, Ac-ICV-2Nal-QD-5F-Trp-G-Aib-HRCT-NH2(C-C)] (Ac-ICV[2Nal]QD[ξTrp(5-F)]G[Aib]HRCT-NH2; disulfide 2-12)	Kd (C3 protein): 35.4 nM
2260	–	–	–	SEQ ID NO.4: Ac-IC-Abu-W(CH3)-QD-5F-Trp-G-Pip-HRCT-NH2 (C-C) (peptide)	Kd [4]: 351 nM
–	–	393000	0.0179	CC[C@H](C)[C@H](NC(C)=O)C(=O)N[C@H]1CSSC[C@@H](C(=O)N[C@H](C(N)=O)[C@@H](C)O)NC(=O)[C@H](CCCNC(=N)N)NC(=O)[C@H](Cc2c[nH]cn2)NC(=O)C(C)(C)NC(=O)CNC(=O)C(Cc2c[nH]c3ccc(F)cc23)NC(=O)[C@H](CC(=O)O)NC(=O)[C@H](CCC(N)=O)NC(=O)[C@H](Cc2c[nH]c3ncccc23)NC(=O)[C@H](C(C)C)NC1=O (some centres unmarked) [SEQ ID NO.2, Ac-ICV-AzaTrp-QD-5F-Trp-G-Aib-HRCT-NH2(C-C)] (Ac-ICV[Trp(7-aza)]QD[ξTrp(5-F)]G[Aib]HRCT-NH2; disulfide 2-12)	IC50 [3]: 920 nM
920	–	–	–	SEQ ID NO.2: Ac-ICV-AzaTrp-QD-5F-Trp-G-Aib-HRCT-NH2 (C-C) (peptide)	Kd [5]: 24.6 nM; Kd [6]: 114 nM; Kd [4]: 45.4 nM

Second part, the compound before the results:

Compound	IC50 (µm), classical pathway complement inhibition assay (ELISA, C3b/iC3b/C3d deposition from human plasma) [1] [nM]	Kd [2] [nM]	kon [2] [M⁻¹ s⁻¹]	koff [2] [s⁻¹]	also measured
SEQ ID NO.3: Ac-ICV-2Nal-QD-5F-Trp-G-Aib-HRCT-NH2 (C-C) (peptide)	1460	–	–	–	–
CC[C@H](C)[C@H](NC(C)=O)C(=O)N[C@H]1CSSC[C@@H](C(=O)N[C@H](C(N)=O)[C@@H](C)O)NC(=O)[C@H](CCCNC(=N)N)NC(=O)[C@H](Cc2c[nH]cn2)NC(=O)C(C)(C)NC(=O)CNC(=O)C(Cc2c[nH]c3ccc(F)cc23)NC(=O)[C@H](CC(=O)O)NC(=O)[C@H](CCC(N)=O)NC(=O)[C@H](Cc2ccc(C(=O)c3ccccc3)cc2)NC(=O)[C@H](Cc2ccc(O)cc2)NC1=O (stereo partly drawn) [SEQ ID NO.6, Ac-IC-Tyr-Bpa-QD-5F-Trp -G-Aib-HRCT-NH2(C-C)] (Ac-ICY[Bpa]QD[ξTrp(5-F)]G[Aib]HRCT-NH2; disulfide 2-12)	–	39900	925	0.0369	–
CC[C@@H]1NC(=O)[C@@H](NC(=O)[C@@H](NC(C)=O)[C@@H](C)CC)CSSC[C@@H](C(=O)N[C@H](C(N)=O)[C@@H](C)O)NC(=O)[C@H](CCCNC(=N)N)NC(=O)[C@H](Cc2c[nH]cn2)NC(=O)C2(CCNCC2)NC(=O)CNC(=O)C(Cc2c[nH]c3ccc(F)cc23)NC(=O)[C@H](CC(=O)O)NC(=O)[C@H](CCC(N)=O)NC(=O)[C@H](Cc2cn(C)c3ccccc23)NC1=O (some centres unmarked) [SEQ ID NO.4, Ac-IC-Abu-W(CH3)-QD-5F-Trp -G-Pip-HRCT-NH2(C-C)] (Ac-IC[Abu][Trp(1-Me)]QD[ξTrp(5-F)]G[Api]HRCT-NH2; disulfide 2-12)	–	–	112000	0.0393	IC50 [3]: 2260 nM
CC[C@H](C)[C@H](NC(C)=O)C(=O)N[C@H]1CSSC[C@@H](C(=O)N[C@H](C(N)=O)[C@@H](C)O)NC(=O)[C@H](CCCNC(=N)N)NC(=O)[C@H](Cc2c[nH]cn2)NC(=O)C(C)(C)NC(=O)CNC(=O)[C@H](Cc2ccc3ccccc3c2)NC(=O)[C@H](CC(=O)O)NC(=O)[C@H](CCC(N)=O)NC(=O)[C@H](Cc2cn(C)c3ccccc23)NC(=O)[C@H](C(C)C)NC1=O [SEQ ID NO.1, Ac-ICV-W(CH3)-QD-2Nal -G-Aib-HRCT-NH2(C-C)] (Ac-ICV[Trp(1-Me)]QD[2Nal]G[Aib]HRCT-NH2; disulfide 2-12)	–	3190	15400	0.0492	–
CC[C@@H]1NC(=O)[C@@H](NC(=O)[C@@H](NC(C)=O)[C@@H](C)CC)CSSC[C@@H](C(=O)N[C@H](C(N)=O)[C@@H](C)O)NC(=O)[C@H](CCCNC(=N)N)NC(=O)[C@H](Cc2c[nH]cn2)NC(=O)C(C)(C)NC(=O)CNC(=O)C(Cc2c[nH]c3ccc(F)cc23)NC(=O)[C@H](CC(=O)O)NC(=O)[C@H](CCC(N)=O)NC(=O)[C@H](Cc2ccc3ccccc3c2)NC1=O (some centres unmarked) [SEQ ID NO.5, Ac-IC-Abu- 2Nal -QD-5F-Trp -G-Aib-HRCT-NH2(C-C)] (Ac-IC[Abu][2Nal]QD[ξTrp(5-F)]G[Aib]HRCT-NH2; disulfide 2-12)	–	2260	13100	0.0296	–
